Experiment [1] is described as follows: Ratio of Ki for fetal bovine serum AChE to Ki for horse BuChE.
Experiment [2] has as its target Cholinesterase (Equus caballus, UniProt P81908). The experiment in a line: Inhibition of horse BuChE.
For experiment [3], the target named is T1, Acetylcholinesterase (Mus musculus, UniProt P21836).
T1 sequence (P21836 whole entry): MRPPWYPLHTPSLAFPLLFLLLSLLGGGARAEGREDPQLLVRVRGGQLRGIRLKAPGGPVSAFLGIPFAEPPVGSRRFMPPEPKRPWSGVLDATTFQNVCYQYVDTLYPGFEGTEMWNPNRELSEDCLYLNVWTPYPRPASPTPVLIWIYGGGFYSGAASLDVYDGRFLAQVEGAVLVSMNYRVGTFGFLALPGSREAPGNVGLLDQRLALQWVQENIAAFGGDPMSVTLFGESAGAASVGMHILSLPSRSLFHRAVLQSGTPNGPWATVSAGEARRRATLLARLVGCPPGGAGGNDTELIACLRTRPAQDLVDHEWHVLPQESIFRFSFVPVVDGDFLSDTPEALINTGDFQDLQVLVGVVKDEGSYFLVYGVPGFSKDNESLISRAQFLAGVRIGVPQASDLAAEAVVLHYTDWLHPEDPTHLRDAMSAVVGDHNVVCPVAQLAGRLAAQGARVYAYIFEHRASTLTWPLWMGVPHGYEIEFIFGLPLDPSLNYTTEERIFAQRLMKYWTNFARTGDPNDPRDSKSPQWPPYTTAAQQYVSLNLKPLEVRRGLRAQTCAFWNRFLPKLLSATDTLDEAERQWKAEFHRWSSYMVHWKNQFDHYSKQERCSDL
Description: Binding affinity to mouse AChE by equilibrium binding assay

Experiment [4] addresses T1, Acetylcholinesterase. This is another data set of the same source.
Description: Binding affinity to mouse AChE
Experiment [5] has as its target T2, Acetylcholinesterase (Rattus norvegicus, UniProt P37136).
T2 sequence (P37136 whole entry): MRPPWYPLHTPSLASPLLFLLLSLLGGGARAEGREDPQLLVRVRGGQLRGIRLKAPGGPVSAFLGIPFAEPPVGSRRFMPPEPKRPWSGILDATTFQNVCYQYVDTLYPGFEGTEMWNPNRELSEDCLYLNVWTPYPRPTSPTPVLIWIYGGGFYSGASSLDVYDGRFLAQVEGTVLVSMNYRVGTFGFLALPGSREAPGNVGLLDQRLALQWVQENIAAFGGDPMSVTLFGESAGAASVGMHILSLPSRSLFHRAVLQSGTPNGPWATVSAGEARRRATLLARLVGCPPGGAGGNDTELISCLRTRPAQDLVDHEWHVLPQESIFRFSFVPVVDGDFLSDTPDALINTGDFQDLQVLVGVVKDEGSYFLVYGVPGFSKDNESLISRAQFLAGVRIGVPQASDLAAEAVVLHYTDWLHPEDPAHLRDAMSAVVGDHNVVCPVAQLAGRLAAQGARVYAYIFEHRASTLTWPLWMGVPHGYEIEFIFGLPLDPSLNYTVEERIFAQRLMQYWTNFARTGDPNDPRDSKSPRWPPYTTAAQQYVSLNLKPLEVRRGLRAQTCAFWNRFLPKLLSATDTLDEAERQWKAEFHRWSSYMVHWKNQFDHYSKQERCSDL

Experiment [6] addresses T3, Acetylcholinesterase (Torpedo californica, UniProt P04058). The experiment in a line: Inhibition of Torpedo californica AChE assessed as carbamylation. The arrangement: species or system Tetronarce californica.
The target in experiment [7] is Cholinesterase (Mus musculus, UniProt Q03311).
Chain of Cholinesterase (Mus musculus, UniProt Q03311) (Q03311 whole entry): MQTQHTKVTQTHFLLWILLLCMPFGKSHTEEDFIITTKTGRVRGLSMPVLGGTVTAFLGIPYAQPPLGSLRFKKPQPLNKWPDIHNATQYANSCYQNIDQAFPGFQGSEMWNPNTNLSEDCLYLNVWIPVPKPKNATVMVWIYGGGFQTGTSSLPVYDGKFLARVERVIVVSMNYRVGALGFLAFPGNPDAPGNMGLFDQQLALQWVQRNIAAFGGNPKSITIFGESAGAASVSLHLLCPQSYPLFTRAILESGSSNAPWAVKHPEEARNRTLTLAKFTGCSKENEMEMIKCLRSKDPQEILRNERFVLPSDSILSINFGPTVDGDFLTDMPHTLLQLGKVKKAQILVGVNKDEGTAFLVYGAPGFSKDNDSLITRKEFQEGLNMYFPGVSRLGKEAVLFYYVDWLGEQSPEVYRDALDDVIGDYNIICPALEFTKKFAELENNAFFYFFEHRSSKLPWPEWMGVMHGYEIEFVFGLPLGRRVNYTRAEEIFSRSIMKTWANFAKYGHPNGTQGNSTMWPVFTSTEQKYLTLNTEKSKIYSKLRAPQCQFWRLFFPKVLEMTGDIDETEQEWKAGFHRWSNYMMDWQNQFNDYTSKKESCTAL
Description: Inhibition of mouse BuChE
For experiment [8], the target named is Acetylcholinesterase (Homo sapiens, UniProt P22303). The experiment in a line: Binding affinity to human AChE.
Chain of Acetylcholinesterase (Homo sapiens, UniProt P22303) (P22303 whole entry): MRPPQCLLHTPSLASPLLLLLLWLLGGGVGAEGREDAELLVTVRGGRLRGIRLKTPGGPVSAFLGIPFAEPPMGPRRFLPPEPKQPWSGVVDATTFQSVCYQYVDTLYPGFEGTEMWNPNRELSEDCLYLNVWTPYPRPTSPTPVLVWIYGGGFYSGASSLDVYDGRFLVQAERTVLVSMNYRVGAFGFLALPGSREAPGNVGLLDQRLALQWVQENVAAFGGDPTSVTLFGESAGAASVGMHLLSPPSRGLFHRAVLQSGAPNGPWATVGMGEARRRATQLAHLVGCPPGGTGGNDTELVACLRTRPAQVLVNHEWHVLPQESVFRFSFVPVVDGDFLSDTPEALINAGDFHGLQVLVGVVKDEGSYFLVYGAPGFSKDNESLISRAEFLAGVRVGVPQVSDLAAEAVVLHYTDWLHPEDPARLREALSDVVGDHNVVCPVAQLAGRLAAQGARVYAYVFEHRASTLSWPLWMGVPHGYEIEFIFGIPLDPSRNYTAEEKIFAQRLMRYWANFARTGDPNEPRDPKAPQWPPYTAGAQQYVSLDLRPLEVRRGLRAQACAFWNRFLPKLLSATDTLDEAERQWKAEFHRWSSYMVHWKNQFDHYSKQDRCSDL
The target in experiment [9] is T4, Acetylcholinesterase (Bos taurus, UniProt P23795).
T4 sequence (P23795 whole entry): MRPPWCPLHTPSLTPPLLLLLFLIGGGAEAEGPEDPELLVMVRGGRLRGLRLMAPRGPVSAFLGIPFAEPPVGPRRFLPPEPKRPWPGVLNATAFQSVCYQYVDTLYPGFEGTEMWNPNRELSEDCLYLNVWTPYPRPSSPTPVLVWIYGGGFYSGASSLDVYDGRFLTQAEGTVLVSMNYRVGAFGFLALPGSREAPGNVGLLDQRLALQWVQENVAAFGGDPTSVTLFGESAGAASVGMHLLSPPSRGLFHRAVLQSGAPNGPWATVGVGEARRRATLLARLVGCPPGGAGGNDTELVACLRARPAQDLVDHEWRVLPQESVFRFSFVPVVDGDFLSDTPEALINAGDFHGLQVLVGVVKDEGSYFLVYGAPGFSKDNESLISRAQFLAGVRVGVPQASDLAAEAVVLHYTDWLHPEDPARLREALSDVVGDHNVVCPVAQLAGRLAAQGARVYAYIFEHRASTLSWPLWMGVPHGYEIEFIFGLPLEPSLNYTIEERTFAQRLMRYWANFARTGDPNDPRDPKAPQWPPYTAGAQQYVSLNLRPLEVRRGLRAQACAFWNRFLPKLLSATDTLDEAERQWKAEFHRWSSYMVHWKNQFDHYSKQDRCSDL
The experiment in a line: Inhibition of bovine AChE.

Experiment [10] concerns the target T3, Acetylcholinesterase.
The target of another experiment is Butyrylcholinesterase (Rattus norvegicus, UniProt Q9JKC1).
Chain of Butyrylcholinesterase (Q9JKC1 whole entry): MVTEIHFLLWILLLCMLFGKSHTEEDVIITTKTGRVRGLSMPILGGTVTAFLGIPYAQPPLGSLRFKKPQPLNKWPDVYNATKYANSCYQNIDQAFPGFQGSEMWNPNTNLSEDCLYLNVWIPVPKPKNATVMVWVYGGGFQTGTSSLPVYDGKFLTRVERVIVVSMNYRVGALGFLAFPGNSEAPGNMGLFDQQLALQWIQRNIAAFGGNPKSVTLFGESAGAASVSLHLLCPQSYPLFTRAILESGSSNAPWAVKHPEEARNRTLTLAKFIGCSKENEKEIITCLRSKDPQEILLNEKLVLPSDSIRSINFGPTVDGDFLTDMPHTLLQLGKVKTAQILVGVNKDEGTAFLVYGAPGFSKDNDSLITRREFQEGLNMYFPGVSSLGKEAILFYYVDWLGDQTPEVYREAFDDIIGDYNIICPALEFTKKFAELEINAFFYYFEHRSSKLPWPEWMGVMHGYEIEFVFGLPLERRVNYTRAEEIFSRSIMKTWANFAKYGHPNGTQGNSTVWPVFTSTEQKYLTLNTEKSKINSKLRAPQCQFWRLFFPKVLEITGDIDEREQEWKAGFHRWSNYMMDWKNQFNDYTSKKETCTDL

pIC50, pKd, pKi: −log10 of the molar value.

T3 sequence (P04058 whole entry): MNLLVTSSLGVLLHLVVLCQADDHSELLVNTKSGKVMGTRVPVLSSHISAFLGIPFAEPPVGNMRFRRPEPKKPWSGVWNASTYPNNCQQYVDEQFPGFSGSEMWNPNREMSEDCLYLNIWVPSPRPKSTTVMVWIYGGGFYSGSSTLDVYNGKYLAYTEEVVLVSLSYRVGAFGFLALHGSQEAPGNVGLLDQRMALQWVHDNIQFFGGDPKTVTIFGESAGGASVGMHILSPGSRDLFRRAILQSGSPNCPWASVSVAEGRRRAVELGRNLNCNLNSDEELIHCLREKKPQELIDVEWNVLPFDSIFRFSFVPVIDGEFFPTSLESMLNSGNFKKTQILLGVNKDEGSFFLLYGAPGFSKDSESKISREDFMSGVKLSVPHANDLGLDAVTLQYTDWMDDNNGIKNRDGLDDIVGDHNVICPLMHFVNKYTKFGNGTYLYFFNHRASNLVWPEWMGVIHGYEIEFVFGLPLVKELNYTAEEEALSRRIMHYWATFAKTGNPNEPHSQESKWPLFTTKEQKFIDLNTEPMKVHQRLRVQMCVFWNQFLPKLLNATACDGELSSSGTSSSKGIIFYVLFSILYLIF
Chain of Cholinesterase (Equus caballus, UniProt P81908) (P81908 whole entry): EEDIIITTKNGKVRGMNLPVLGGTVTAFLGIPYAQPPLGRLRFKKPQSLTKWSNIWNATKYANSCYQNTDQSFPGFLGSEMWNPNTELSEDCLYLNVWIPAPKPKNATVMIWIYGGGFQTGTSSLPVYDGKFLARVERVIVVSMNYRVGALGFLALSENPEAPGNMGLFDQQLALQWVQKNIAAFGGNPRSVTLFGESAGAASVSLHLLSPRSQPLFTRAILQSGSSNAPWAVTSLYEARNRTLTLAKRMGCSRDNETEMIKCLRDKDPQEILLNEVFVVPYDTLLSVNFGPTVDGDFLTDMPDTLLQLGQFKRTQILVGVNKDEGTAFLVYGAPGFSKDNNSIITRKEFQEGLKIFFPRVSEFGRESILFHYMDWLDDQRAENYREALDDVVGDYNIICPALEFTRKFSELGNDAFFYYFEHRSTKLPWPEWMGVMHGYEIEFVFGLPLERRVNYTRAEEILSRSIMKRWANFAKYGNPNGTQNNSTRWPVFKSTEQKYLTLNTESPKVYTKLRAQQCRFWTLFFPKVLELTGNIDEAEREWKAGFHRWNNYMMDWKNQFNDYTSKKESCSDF

As usually defined, the pKi is the Ki on a negative log10 scale, so that one unit is a factor of ten. For `CN(CCCNc1c2c(nc3ccccc13)CCCC2)CCCSc1c2c(nc3ccccc13)CCCC2`, in experiment [1], the Ratio Ki came to 2.17. The same molecule showed a pKi at Cholinesterase [2] of 8.38.

As usually defined, the pKd is −log10 of the Kd, conventionally taken in molar units. A high value points to a small Kd. For the molecule `C[N+](C)(C)CCCCCCCCCC[n+]1c(-c2ccccc2)cc(N)c2ccc3ccc(N)cc3c21`, the negative-log Kd (pKd) on Acetylcholinesterase [3] is 3.80; at Acetylcholinesterase [4] it was 4.10.

`CC[N+](CC)(CCNC(=O)C(=O)NCC[N+](CC)(CC)Cc1ccccc1Cl)Cc1ccccc1Cl` [AMBENONIUM]: the pKd on Acetylcholinesterase [3] was 4.34; at Acetylcholinesterase [4], 4.27.

For orientation: pIC50 means −log10 of the IC50, conventionally taken in molar units. The low end stands for a large IC50, the high end for a small IC50. At Acetylcholinesterase [5], `NCCCCCCCCNc1c2c(nc3ccccc13)CCCC2` showed a pIC50 of 8.82.

For `c1ccc2c(NCCCCCCCNc3c4c(nc5ccccc35)CCCC4)c3c(nc2c1)CCCC3`, the pKi at Cholinesterase [2] was 8.70.

Turning to `CCN(C)C(=O)Oc1cccc([C@H](C)N(C)C)c1` [RIVASTIGMINE], on Acetylcholinesterase [6], the Ki is 2 min⁻¹ M⁻¹.

Regarding `Nc1ccc2c(c1)c(-c1ccccc1)[n+](CCCCCCc1cnnn1CCNc1c3c(nc4ccccc14)CCCC3)c1cc(N)ccc21`, the pKi on Cholinesterase [7] is 9.14.

With `CCC1=CC2Cc3nc4cc(Cl)ccc4c(N)c3[C@@H](C1)C2` [HUPRINE X], the pKi at Acetylcholinesterase [8] was 9.17.

On Acetylcholinesterase [9], `C=CC[N+](C)(C)c1ccc(CCC(=O)CCc2ccc([N+](C)(C)CC=C)cc2)cc1` showed a pKi of 7.24.

On Cholinesterase [7], `Nc1ccc2c(c1)c(-c1ccccc1)[n+](CCCCCCc1cn(CCNc3c4c(nc5ccccc35)CCCC4)nn1)c1cc(N)ccc21` showed a pKi of 9.34.

`CCc1ccccc1NC(=O)Oc1ccc2c(c1)[C@]1(C)CCN(C)O[C@@H]1N2C` [GANSTIGMINE] gave a pIC50 against Acetylcholinesterase [10] of 5.29.

As to `c1ccc2c(c1)NC1CCCCC1=C2NCCCCCCCCNC1CCNC2CCCCC21` (stereo unspecified), the pIC50 is 6.96 against Butyrylcholinesterase and 8.06 against Acetylcholinesterase [5].

The record behind these values is ChEMBL document CHEMBL1150386 (J Med Chem, 2008).
